# Several values for one entry are separate records, joined by “and”; a condition that tells them apart may be missing. Equal entries are not always repeated. Where two headings read alike, the source gives them in different places. Where no end group is shown, it is not given here. The star is where a group is joined. Biotin = O=C1N[C@H]2[C@H](CS[C@H]2CCCCC(=O)*)N1
# Key:
# [1] = target: T1, HIV-1 CA CTD/CAI interaction (Human immunodeficiency virus type 1 group M subtype B, UniProt P12493); assay: biochemical; format: binding; settings: for inhibition at 50 µM: read-out: IR (%), inhibitory rate; for IC50: 12-point two-fold dilution 50 to 0.024 μM, n = 3
# T1 construct: DNA encoding the CA CTD was cloned into BamHI-NotI sites of prokaryotic expression vector pGEX-4 T-1; made in house; host or cells: E. coli BL21(DE3)
# Protocol: The Discovery Probe FDA-approved Drug Library comprised 1,971 compounds, which were available as stock solutions at 10 mM concentrations in DMSO. Primary screening of these compounds was conducted using a previously established HTRF assay ([Zhang et al., 2019]). Briefly, compound (1 μL), CAI-biotin peptide (2 μL) and GST-CA CTD (2 μL) were dispensed into 384-well microplates. After 30 min incubation at room temperature, 5 μL premixed HTRF agents were added. After an additional 1 h incubation at room temperature, the HTRF signal was acquired by reading the plates in a PerkinElmer Envision Multilabel Plate Reader. Data were analyzed and visualized using GraphPad Prism (version 5.0). […] The quality of the assay was determined by calculating the Z’-factor using the following equation: Z’ = 1 - (3 × SDmax + 3 × SDmin) / |μmax - μmin|, where SDmax and SDmin represent the standard deviations of the positive and negative control measurements, respectively, and μmax and μmin represent the means of the respective positive and negative signal controls ([Zhang et al., 1999]).
# We screened a library of 1,971 small molecules, all of which were FDA-approved. Each compound was tested in duplicate at a concentration of 50 μM. […] The remaining compounds were further validated through dose–response analysis using the HTRF assay.
# Seven hit compounds were repurchased and subjected to a 12-point two-fold serial dilution, from 50 to 0.024 μM. […] This assay was conducted using three different concentrations of the compounds to determine their binding to monomeric CA.
# HIV-1 CA monomer (WT) = target: T2, HIV-1 CA monomer (WT) (Human immunodeficiency virus type 1 group M subtype B, UniProt P12493); assay: biochemical; format: binding; settings: 7.5–30 μM compound, 1:1 model, mean ± SD
# T2 construct: capsid proteins (CA) released by proteolytic processing of Gag; made in house
# HIV-1 CA monomer (Y169A) = HIV-1 CA monomer (Y169A) (Human immunodeficiency virus type 1 group M subtype B, UniProt P12493, Y301A); assay: biochemical; format: binding
# HIV-1 CA monomer (E187A) = HIV-1 CA monomer (E187A) (Human immunodeficiency virus type 1 group M subtype B, UniProt P12493, E319A); assay: biochemical; format: binding
# HIV-1 CA monomer (L211A) [2] = target: HIV-1 CA monomer (L211A) (Human immunodeficiency virus type 1 group M subtype B, UniProt P12493, L343A); assay: biochemical; format: binding
# HIV-1 CA monomer (L211A) [3] = assay: biochemical; format: binding; settings: CA L211A compared to WT CA
# HIV-1 CA monomer (L211S) = HIV-1 CA monomer (L211S) (Human immunodeficiency virus type 1 group M subtype B, UniProt P12493, L343S); assay: biochemical; format: binding
# HIV-1 CA monomer (N183A) = HIV-1 CA monomer (N183A) (Human immunodeficiency virus type 1 group M subtype B, UniProt P12493, N315A); assay: biochemical; format: binding
# HIV-1 CA hexamer = HIV-1 CA hexamer (Human immunodeficiency virus type 1 group M subtype B, UniProt P12493, A146C/E177C/M317A/W316A); assay: BLI binding to CA hexamer
# HIV-1 CA = target: T3, HIV-1 CA (Human immunodeficiency virus type 1 group M subtype B, UniProt P12493); assay: In vitro assembly of recombinant CA (absorbance at 350 nm); format: biochemical; settings: 2.5 M NaCl, absorbance at 350 nm over time
# T3 construct: capsid proteins (CA) released by proteolytic processing of Gag; made in house
# Protocol: To monitor the in vitro assembly of HIV-1 CA in the presence and absence of hit compounds, changes in sample absorbance over time at 350 nm were measured, as previously described ([Lanman et al., 2002]; [Tang et al., 2003]; [Xu et al., 2018]). To initiate the assay, 1 μL of 5 mM SA or SB was added to 74 μL of buffer composed of a mixture of 5 M NaCl and 200 mM NaH2PO4 (pH 8.0) in a ratio of 2:1 by volume. Subsequently, 25 μL of CA (120 μM) was added to each well and DMSO served as a vehicle control. After a 2-min equilibration period, sample absorbance values were measured at 350 nm every 60 s for 39 min using a Perkin Elmer Envision microplate reader and were corrected by subtracting the absorbance values of a blank sample without sodium chloride. The resulting data were analyzed using GraphPad Prism 5.0.
# Under high ionic strength conditions, recombinant CA can spontaneously oligomerize and form open-ended helical tubes consisting of repeating CA hexamers. To investigate the impact of SA and SB on CA tube assembly, we monitored in vitro CA assembly in the presence and absence of SA and SB by measuring changes in light absorbance over time in 2.5 M NaCl. CA (25 μM) for CA. […] We used BLI to determine the KD values of SA and SB in the HIV-1 CA hexamer.
# Figure 4 Sennoside A and Sennoside B induced CA multimerization in vitro. (A–B) Light scattering (absorbance at 350 nm) responses showing the rate and extent of in vitro CA (20 μM) assembly in 2.5 M NaCl, in absence of compounds (mock) and the presence of Sennoside A and Sennoside B or CAI. Data are representative of three independent experiments. (C–D) Representative binding sensorgrams depicting the interaction of SA or SB with CA hexamer assessed by bio-layer interferometry (BLI) detection.
# [4] = target: T4, CA hexamer/CPSF6 peptide interaction (Human immunodeficiency virus type 1 group M subtype B, UniProt P12493, A146C/E177C/M317A/W316A); format: binding, HIV-1
# T4 construct: capsid proteins (CA) released by proteolytic processing of Gag; made in house
# Protocol: As mentioned previously, this pocket is the binding site for two host cell proteins, CPSF6 and NUP153 ([Price et al., 2014]). […] We then performed a BLI-based competition assay. CA hexamer at a concentration of 5 μM, either alone or in combination with high concentrations of SA or SB or PF-74, were used to bind to the SA biosensor loaded with biotinylated CPSF6_313–327 or NUP153_1407–1423.
# Biotinylated hexameric CA was firstly loaded to streptavidin-coated biosensors. Then the biosensors were dipped into the plate wells containing CPSF6_308-327 or NUP153_1407–1423 in the absence or presence of PF74 or SA or SB. BLI signals were captured by Octet96 system and data were normalized according to the signal in the absence of compound. Comparisons between data were carried out using the paired t-test by GraphPad Prism 5.0. The double asterisk (^**) and three asterisks (^***) represent p < 0.01 and < 0.001 from the paired t test, respectively.
# HIV-1 [5] = assay: Anti-HIV-1 activity, virus-induced cytopathic effect in C8166 cells; format: cell-based; settings: for IC50: Human immunodeficiency virus 1, M.O.I 0.03, 72 h, read-out: IC50 against HIV-1 induced CPE
# Protocol: (§1) Anti-HIV-1 activity was determined by an assay based on virus-induced cytopathic effects (CPE) ([Zhang et al., 2020]). Briefly, C8166 cells were infected with HIV-1 at a multiplicity of infection (M.O.I) of 0.03, with DMSO or diluted SA or SB in 96-well plates. […] The cytotoxicity of the compounds was determined by a tetrazolium dye (MTT) based assay. C8166 cells were co-incubated with diluted SA or SB in 96-well plates. After 3 days, cell viability was determined using MTT, and the 50% cytotoxicity concentration (CC50) was calculated. […] Tenofovir disoproxil fumarate (TDF) was used as a positive control.
# (§2) To further evaluate the antiviral effects of SA and SB, we tested them for protecting C8166 cells from HIV-1-induced CPE. The cytotoxic effect of these compounds on C8166 cells was also assessed.
# Cytotoxicity, MTT assay = format: cell-based; settings: human, C8166 cells
# Protocol: as §1, §2
# [6] = target: HIV-1 reverse transcriptase-associated DNA Polymerase; design: method as in Esposito et al., 2016; settings: ref Esposito et al., 2016; cited from earlier work
# RNase H = target: RNase H; design: method as in Esposito et al., 2016; settings: ref Esposito et al., 2016; cited from earlier work
# integrase = target: integrase; design: method as in Esposito et al., 2016; settings: ref Esposito et al., 2016; cited from earlier work
# protease of zika virus = settings: ref Coelho et al., 2022; cited from earlier work
# HIV-1 [7] = test system: HIV-1; design: method as in Esposito et al., 2016; settings: cell-based assays, ref Esposito et al., 2016; read-out: EC50, anti-HIV-1 activity; cited from earlier work
# SARS-CoV-2 main protease = settings: cited from earlier work
# [8] = primary screening, compound at 50 μM, duplicate
# [9] = 5 μM CA hexamer, PF74 2.5 μM, SA 225 μM, SB 175 μM
molecule,measurement,setting,value
O=C(O)CCCC[C@@H]1SC[C@@H]2NC(=O)N[C@@H]21 [Biotin],inhibition at 50 µM,[1],98.8%
CC[C@H](C)C[C@H](C)CCCCCCCCC(=O)N[C@H]1C[C@@H](O)[C@@H](NCCN)NC(=O)[C@@H]2[C@@H](O)CCN2C(=O)[C@H]([C@H](O)CCN)NC(=O)[C@H]([C@H](O)[C@@H](O)c2ccc(O)cc2)NC(=O)[C@@H]2C[C@@H](O)CN2C(=O)[C@H]([C@@H](C)O)NC1=O [Caspofungin],IC50,[1],29500 nM
same,inhibition at 50 µM,[1]; [8],94.2%
CCCCCCCCCCCC1=C(O)C(=O)C=C(O)C1=O [Embelin],inhibition at 50 µM,[1]; [8],94.3%
"O=C(O)c1cc(O)c2c(c1)[C@H]([C@H]1c3cc(C(=O)O)cc(O)c3C(=O)c3c(O[C@@H]4O[C@H](CO)[C@@H](O)[C@H](O)[C@H]4O)cccc31)c1cccc(O[C@@H]3O[C@H](CO)[C@@H](O)[C@H](O)[C@H]3O)c1C2=O [Sennoside A, sennoside A]",IC50,[1],180 nM
same,inhibition at 50 µM,[1]; [8],94.7%
same,Kd,HIV-1 CA monomer (WT),2340 nM
same,Kd,HIV-1 CA monomer (Y169A),8800 ± 290 nM
same,Kd,HIV-1 CA monomer (E187A),7690 ± 250 nM
same,Kd,HIV-1 CA monomer (L211A) [2],3170 ± 90 nM
same,KD fold change,HIV-1 CA monomer (L211A) [3],1.35
same,Kd,HIV-1 CA monomer (L211S),7000 ± 180 nM
same,Kd,HIV-1 CA monomer (N183A),1950 ± 60 nM
same,Kd,HIV-1 CA hexamer,1750 nM and 2250 nM
same,effect on in vitro CA assembly,HIV-1 CA,increased in vitro CA assembly in a dose-dependent manner
same,effect on CA hexamer/CPSF6 peptide interaction,[4]; [9],inhibited
same,selectivity index (SI = CC50/EC50),HIV-1 [5],less than 10
same,IC50,HIV-1 [5],2270 nM
same,CC50 at 3 days,"Cytotoxicity, MTT assay",22600 nM
same,IC50,[6],5300 nM
same,IC50,RNase H,1900 nM
same,IC50,integrase,3800 nM
same,IC50,protease of zika virus,660 nM
same,EC50,HIV-1 [7],~9000 nM
"O=C(O)c1cc(O)c2c(c1)[C@@H]([C@H]1c3cc(C(=O)O)cc(O)c3C(=O)c3c(O[C@@H]4O[C@H](CO)[C@@H](O)[C@H](O)[C@H]4O)cccc31)c1cccc(O[C@@H]3O[C@H](CO)[C@@H](O)[C@H](O)[C@H]3O)c1C2=O [Sennoside B, sennoside B]",IC50,[1],80 nM
same,inhibition at 50 µM,[1]; [8],95.1%
same,Kd,HIV-1 CA monomer (WT),1620 nM
same,Kd,HIV-1 CA monomer (Y169A),2800 ± 70 nM
same,Kd,HIV-1 CA monomer (E187A),6770 ± 200 nM
same,Kd,HIV-1 CA monomer (L211A) [2],2520 ± 70 nM
same,Kd,HIV-1 CA monomer (L211S),4840 ± 120 nM
same,Kd,HIV-1 CA monomer (N183A),3960 ± 110 nM
same,Kd,HIV-1 CA hexamer,2250 nM and 1750 nM
same,effect on in vitro CA assembly,HIV-1 CA,increased in vitro CA assembly in a dose-dependent manner
same,effect on CA hexamer/CPSF6 peptide interaction,[4]; [9],inhibited
same,selectivity index (SI = CC50/EC50),HIV-1 [5],less than 10
same,IC50,HIV-1 [5],4730 nM
same,CC50 at 3 days,"Cytotoxicity, MTT assay",33400 nM
same,IC50,SARS-CoV-2 main protease,104 nM
"CAI: dodecapeptide capsid assembly inhibitor identified by phage display, positive control (ITFEDLLDYYPGGGSK(Biotin))",effect on in vitro CA assembly,HIV-1 CA,inhibited CA assembly in vitro
PF-74,effect on CA hexamer/CPSF6 peptide interaction,[4],"inhibited, to a degree"

# Source: publication PMC10561090, “Modulation of HIV-1 capsid multimerization by sennoside A and sennoside B via interaction with the NTD/CTD interface in capsid hexamer” (Frontiers in Microbiology, 2023)
